Target: T1, PTP-1B (Homo sapiens, UniProt P18031)
T1 construct: PTP-1B (purified, 1 mg/mL) as a 1:250 dilution
T1 sequence (P18031 1-321 limits assumed): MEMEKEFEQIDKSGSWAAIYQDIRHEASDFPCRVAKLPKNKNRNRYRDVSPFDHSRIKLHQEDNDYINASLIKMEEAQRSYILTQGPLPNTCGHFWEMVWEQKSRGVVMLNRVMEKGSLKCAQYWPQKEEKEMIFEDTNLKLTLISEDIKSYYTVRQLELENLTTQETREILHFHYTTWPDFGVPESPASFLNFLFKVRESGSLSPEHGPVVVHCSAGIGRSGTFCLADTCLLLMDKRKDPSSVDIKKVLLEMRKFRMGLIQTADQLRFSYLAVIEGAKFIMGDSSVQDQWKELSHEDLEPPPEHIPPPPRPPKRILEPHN
Assay: pNPP assay for tyrosine phosphatase inhibitory activity
Assay type: biochemical
Conditions: Table 1; pNPP substrate 10 mM, 30° C., 10 minutes, absorbance at 405 nm
Experimental: The compounds provided herein are evaluated for biological activity as inhibitors of PTP-1B using, for example, a pNPP assay. Such an assay can be used to screen compounds for tyrosine phosphatase inhibitory activity as shown in Example 39.
A 5× stock of pNPP (p-nitrophenol phosphate) substrate is prepared as 50 mM pNPP in assay buffer. Various tyrosine phosphatase solutions can be prepared as follows: • PTP-1B (purified, 1 mg/mL) as a 1:250 dilution (to a final concentration of 4:g/mL); • TC-PTP (NEB, 1000 units in 100:L) as a 1:50 dilution (to a final concentration of 2 U/10:L (4:g/mL)); • CD45 (Calbiochem, 20:g, 400 units in 100: L) as a 1 :50 dilution (to a final concentration of 0.8 U/10:L (4:g/mL)); • LAR (NEB, 1000 units in 200:L) as a 1:75 dilution (to a final concentration of 0.7 U/10:L (4:g/mL)); and • PTP-β (UBI, #14-350, 10,000 units, 40:g/571:L) as a 1:17.5 dilution (to a final concentration of 10 U/10:L (4:g/mL));
The compound to be tested is prepared as 1:16.7 and 1:50 dilutions from stock in a total volume of 1 00:M DMSO to give final concentrations of 626 and 200:M. The reaction mixtures are prepared in a 96-well microtiter plate (on ice) as 55:L assay buffer, 5:L of the diluted compound (to a final concentration of 31.3 and 10:M), 20:L of the pNPP substrate solution (to a final concentration of 10 mM) and 20:L PTPase in assay buffer. The reactants are mixed well, the plate placed in a water bath at 30° C. and incubated for 10 minutes. The reaction is then terminated by adding 1 OO:L of 2M K2CO3 per well, and the absorbance is measured at 405 nm by conventional means.
Unless otherwise indicated, this assay was used to determine activity for the selected compounds whose activity is recorded in Table 1 and Table 2.

SMILES | IC50 [µM]
O=C(O)c1ccc(CN(Cc2ccc(C(F)(F)P(=O)(O)O)cc2)c2nnc(-c3cccc(Oc4ccccc4)c3)o2)cc1 [4-({[4-(Difluoro-phosphono-methyl)-benzyl]-[5-(3-phenoxy-phenyl)-[1,3,4]oxadiazol-2-yl]-amino}-methyl)-benzoic acid] | 1 to 10
COC(=O)c1ccccc1-c1ccc(-c2cnc(N(Cc3ccc(C(F)(F)P(=O)(O)O)c(Br)c3)c3ccc(Cl)c(Cl)c3)o2)cc1 [Example 15, 4′-{2-[[3-Bromo-4-(difluoro-phosphono-methyl)-benzyl]-(3,4-dichloro-phenyl)-amino]-oxazol-5-yl}-biphenyl-2-carboxylic acid methyl ester] | 1 to 10
CS(=O)(=O)c1ccc(-c2cnc(N(Cc3ccc(/C=C/C(=O)O)c(Br)c3)c3ccc(Cl)c(Cl)c3)o2)cc1 [3-[2-Bromo-4-({(3,4-dichloro-phenyl)-(5-(4-methanesulfonyl-phenyl)-oxazol-2-yl]-amino}-methyl)-phenyl]-acrylic acid] | 10 to 100
COC(=O)c1ccc(CN(Cc2ccc(C(F)(F)P(=O)(O)O)cc2)c2nnc(-c3cccc(Oc4ccccc4)c3)o2)cc1 [4-({[4-(Difluoro-phosphono-methyl)-benzyl]-[5-(3-phenoxy-phenyl)-[1,3,4]oxadiazol-2-yl]-amino}-methyl)-benzoic acid methyl ester] | 10 to 100
COP(=O)(O)C(F)(F)c1ccc(CN(c2ccc(Cl)c(Cl)c2)c2ncc(-c3ccc(S(C)(=O)=O)cc3)o2)cc1Br [{[2-Bromo-4-({(3,4-dichloro-phenyl)-[5-(4-methanesulfonyl-phenyl)-oxazol-2-yl]-amino}-methyl)-phenyl]-difluoro-methyl]-phosphonic acid monomethyl ester] | 10 to 100
CC(C)(C)C(=O)OCOP(=O)(O)C(F)(F)c1ccc(CN(c2ccc(Cl)c(Cl)c2)c2ncc(-c3ccc(S(C)(=O)=O)cc3)o2)cc1Br [Example 11, 2,2-Dimethyl-propionic acid {[2-bromo-4-({(3,4-dichloro-phenyl)-[5-(4-methanesulfonyl-phenyl)-oxazol-2-yl]-amino}-methyl)-phenyl]-difluoro-methyl}-hydroxy-phosphinoyloxymethyl ester] | 10 to 100

The next lines start with the values.

IC50 [µM] | SMILES
0.5 to 1 | COC(=O)c1cccc(Oc2cccc(-c3nnc(N(Cc4ccc(C(F)(F)P(=O)(O)O)c(Br)c4)c4ccc(Cl)c(Cl)c4)o3)c2)c1 [Example 24, 3-(3-{5-[[3-Bromo-4-(difluoro-phosphono-methyl)-benzyl]-(3,4-dichloro-phenyl)-amino]-[1,3,4]oxadiazol-2-yl}-phenoxy)-benzoic acid methyl ester]
1 to 10 | COC(=O)c1ccccc1-c1cccc(-c2cnc(N(Cc3ccc(C(F)(F)P(=O)(O)O)c(Br)c3)c3ccc(Cl)c(Cl)c3)o2)c1 [Example 19, 3′-{2-[[3-Bromo-4-(difluoro-phosphono-methyl)-benzyl]-(3,4-dichloro-phenyl)-amino]-oxazol-5-yl}-biphenyl-2-carboxylic acid methyl ester]

Same assay, conditions: Table 2; pNPP substrate 10 mM, 30° C., 10 minutes, absorbance at 405 nm

IC50 [µM] | SMILES
0.1 to 0.5 | O=C(O)c1ccccc1-c1ccc(-c2cnc(N(Cc3ccc(C(F)(F)P(=O)(O)O)c(Br)c3)c3ccc(F)cc3)o2)cc1 [Example 28, 4′-{2-[[3-Bromo-4-(difluoro-phosphono-methyl)-benzyl]-(4-fluorophenyl)-amino]-oxazol-5-yl}-biphenyl-2-carboxylic acid]
0.1 to 0.5 | NC(=O)c1ccc(-c2cnc(N(Cc3ccc(C(F)(F)P(=O)(O)O)c(Br)c3)c3ccc(F)cc3)o2)cc1 [Example 37, [(2-Bromo-4-{[[5-(4-carbamoyl-phenyl)-oxazol-2-yl]-(4-fluoro-phenyl)-amino]-methyl}-phenyl)-difluoro-methyl]-phosphonic acid]
0.1 to 0.5 | O=C(O)c1ccccc1-c1ccc(-c2cnc(N(Cc3ccc(C(F)(F)P(=O)(O)O)c(Br)c3)c3ccc(Cl)cc3)o2)cc1 [Example 29, 4′-{2-[[3-Bromo-4-(difluoro-phosphono-methyl)-benzyl]-(4-chlorophenyl)-amino]-oxazol-5-yl}-biphenyl-2-carboxylic acid]

From patent US20060135483A1, “Oxygen/nitrogen heterocycle inhibitors of tyrosine phosphatases” (priority 2004, published 2006)
